Test results as given in PMC11475281, “A Novel Liver Cancer-Selective Histone Deacetylase Inhibitor Is Effective against Hepatocellular Carcinoma and Induces Durable Responses with Immunotherapy” (ACS Pharmacology & Translational Science, 2024).
Read-outs that look alike come from different tables or passages of the source.

Assays:
Hep-G2 (HCC) = test: MTS cell viability assay, 72 h; assay type: cell-based, human; conditions: Table S2; read-out: Anti-proliferation IC50 Hep-G2
Text: We then screened STR-V-53 and all the synthesized glycosylated HDACi for their effects on the viability of three cell lines: A549 (lung adenocarcinoma), Hep-G2 (HCC), and VERO (a normal kidney epithelial cell). We used SORA and STR-V-48, a previously disclosed nonglycosylated compound, as controls.[25] […] Additionally, compound STR-V-167, the peracetylated analog of STR-V-53, largely retained the Hep-G2 selectivity of STR-V-53 (Table S2). Subsequently, we evaluated the effects of STR-V-53 on cell proliferation using a panel of human HCC cell lines (Huh-7, SK-Hep-1, and Hep3B) as well as Kupffer cells (liver resident macrophages) by MTS assay. We observed that STR-V-53 is 7- to 16-fold more cytotoxic against these HCC cell lines relative to the Kupffer cells (Figure 1g). […] Based on their weak HDAC and cell proliferation inhibition activities, we de-emphasized further evaluation of the class III compounds.
10-017-CV), supplemented with 10% fetal bovine serum (FBS) (Corning, 35-010-CV). Hep-G2 cells were cultured in phenol red-free Minimum Essential Medium (MEM) (Corning, 17-305-CV), supplemented with 10% fetal bovine serum (FBS). SK-Hep-1 in ATCC-formulated EMEM (ATCC® 30–2003™); Huh-7 in DMEM (containing 4 mM L-glutamine and 1 g/L glucose) with […]
Kupffer Cell Media (Sekisui XenoTech, LLC, Cat. #K8700). Cells were seeded into a 96-well plate (2000 counts/100uL) for 24 h prior to treatment and then treated with various drug concentrations for 72 h. All drugs were dissolved in media with DMSO concentration maintained at 1%. The effect of compounds on cell viability was measured using the MTS assay (CellTiter 96 Aqueous One Solution and CellTiter 96 Non-Radioactive Cell Proliferation Assays, Promega, Madison, WI) as described by the manufacturer. IC50s were determined using Prism GraphPad 8. […]

Hep-G2 cells = test: GLUT-2 uptake experiment (phloretin blockade, MTS); assay type: cell-based; conditions: Homo sapiens, read-out: Hep-G2 Cell Viability %; for viability at 6.25 µM: HepG2, 6.25 μM; for viability at 12.5 µM: HepG2, 12.5 μM; for viability at 1.25 µM: HepG2, 1.25 μM; for viability at 2.5 µM: HepG2, 2.5 μM
Method: We observed that Ph selectively mitigated the cytotoxicity of STR-V-53 against the Hep-G2 cell line with no apparent effect on the cytotoxicity of SAHA (Figure 2a). […] This matches our expectation because Hep-G2 cells overexpress GLUT-2 while VERO has limited expression of GLUT-2.[26]
MIDI 4-20% gel (Biorad, cat. 5671093) and ran at 150 V for 70 min. The gel was then transferred onto the Turbo PDVF membrane (Biorad, 1704273), and after blocking with 5% BSA for 1-2 h, the membrane was incubated overnight with primary antibodies Ac-Tubulin (sc-23950), Ac-H4 (sc-515319) (Santa Cruz Biotechnology), caspase 3 and clv-Caspase 3 (Cell signaling Technology), anti-p21WAF/CIP (ThermoFisher), anti-GAPDH (Aldrich-Sigma). On the second day, the membrane was washed with TBST for 3x5 min; a secondary antibody (LiCOR) was added, and the membrane was incubated with agitation for 1 h. After washing with TBS-T 3x5 mins, bands were quantified using the Odyssey CLx Image system.
(§1) Hep-G2 or VERO cells were seeded (2500 to 4,000 counts/well) into 96-well plates, in which each well contains 100 µL media. The cells were cultured overnight in the respective media described in the cell culture section above. On day 2, the cells were treated with 25 µM Phloretin for 24 h. On day 3, 200x stock solutions of STR-V-53 and SAHA were used to prepare 2x treatment solution by adding 1% stock solution in the media. Then, without removal of the media in 96-well plates, the same volumes of drug as the media were added directly to the wells with gentle pipetting to reach 1x drug solution with 25 µM Ph. After another 72 h, the media were removed, and new media (100 µL) added to the wells. MTS solution (20 µL) was added to each well. After 2.5-4 h incubation, the plates were read using a multiplate reader at 490 nm. The data were processed using GraphPad Prism 8.
Hep-G2 cells (5*106) were seeded in a 10 cm plate with MEM and incubated until 50% confluency before drug treatment. Cells were treated, with DMSO (control) and DMSO solutions of SAHA (5 µM) and STR-V-53 (15 µM) such that the final DMSO level was 0.1%,

GLUT-2 = GLUT-2 uptake experiment (phloretin blockade, MTS); assay type: cell-based; conditions: African green monkey, VERO cells, with phloretin 25 µM, Pre-treated with 25 μM Ph, read-out: VERO Cell Viability %
Method: (§2) We observed that Ph selectively mitigated the cytotoxicity of STR-V-53 against the Hep-G2 cell line with no apparent effect on the cytotoxicity of SAHA (Figure 2a). […] This matches our expectation because Hep-G2 cells overexpress GLUT-2 while VERO has limited expression of GLUT-2.[26] […]
as §1, with “8. […]” for “8.”

[1] = GLUT-2 uptake experiment (phloretin blockade, MTS); assay type: cell-based; conditions: African green monkey, VERO cells, No addition of Ph, read-out: VERO Cell Viability %
Method: as §2
as §1, with “8. […]” for “8.”

## O=C(CCCCCCn1cc(-c2ccc3cc(O[C@H]4O[C@H](CO)[C@@H](O)[C@H](O)[C@H]4O)ccc3c2)nn1)NO [STR-V-114]
Hep-G2 (HCC)
  IC50: 6.7 ± 1.6 µM

## O=C(CCCCCCn1cc(-c2ccc(O[C@H]3O[C@H](CO)[C@@H](O)[C@H](O)[C@H]3O)cc2)nn1)NO [STR-V-53]
Hep-G2 cells; No addition of Ph
  viability at 6.25 µM: 104%
  viability at 12.5 µM: 25.4%
Hep-G2 cells; Pre-treated with 25 μM Ph
  viability at 6.25 µM: 103%
  viability at 12.5 µM: 70.3%
GLUT-2; 75μM
  viability at 72 h, 75 µM: 100%
GLUT-2; 100μM
  viability at 72 h, 100 µM: 75.9%
[1]; 75μM
  viability at 72 h, 75 µM: 98.4%
[1]; 100μM
  viability at 72 h, 100 µM: 77.8%

## O=C(CCCCCCn1cc(-c2ccc(O[C@@H]3O[C@H](CO)[C@@H](O)[C@H](O)[C@H]3O)cc2)nn1)NO [STR-I-195]
Hep-G2 (HCC)
  IC50: 22.3 ± 2 µM

## O=C(CCCCCCC(=O)Nc1ccccc1)NO [SAHA, vorinostat, reference compound]
Hep-G2 cells; No addition of Ph
  viability at 1.25 µM: 96.2%
  viability at 2.5 µM: 31.2%
Hep-G2 cells; Pre-treated with 25 μM Ph
  viability at 1.25 µM: 84%
  viability at 2.5 µM: 41.8%
GLUT-2; 6.5 μM
  viability at 72 h, 6.5 µM: 87.2%
GLUT-2; 12.5 μM
  viability at 72 h, 12.5 µM: 7.5%
[1]; 6.5 μM
  viability at 72 h, 6.5 µM: 97.7%
[1]; 12.5 μM
  viability at 72 h, 12.5 µM: 17.1%
